Experiment [1] concerns embryonic epithelial cells. Briefly: Spheroid-formation assay with or without CDK1 inhibitor. The class given is cell-based, mouse. As to the method:
Mouse embryo fibroblasts (MEFs) and mouse embryo epithelial cells (MEEs) were derived from 13.5-day-old embryos as previously described. That is, after removal of the head and internal organs, embryos were rinsed with phosphate buffered saline (PBS), minced, and treated with trypsin/EDTA to obtain single cells. The MEFs was resuspended in DMEM containing 10% FBS, 2 mM L-glutamine, 0.1 mM MEM nonessential amino acids, 55 uM beta-mercaptoethanol, and 100 IU/ml penicillin, and 100 ug/ml streptomycin. Cell media and reagents were obtained from GIBCO (Paisley, England). The MEEs were cultured in a D-MEM/F-12 medium containing 1% FBS, 1 mg of insulin, 1 mg of hydrocortisone, 12.5 μg of EGF, 10 mg of ascorbic acid, 10 mg of transferin, 14.1 mg of phosphoethanolamine, Na selenite, 1 μg of cholera toxin, 6.5 μg of triiodo thyronine, 35 mg of bovine pituitary extract, ethanolamine, 50 IU/ml of penicillin, and 50 ug/ml of streptomycin. The cells were incubated at 37° C. in a 5% CO2-humidified chamber. After disintegration of the embryos, plating was considered passage 0. All experiments were carried out using cells within passage 5 from three different batches. The genotypes of the MEFs and MEEs were confirmed by genotyping PCR. At least three independently generated cell lines per genotype were used.
In spheroid-formation assay, as mentioned above, advanced DMEM/F12 media used for embryonic epithelial cell culture were employed. The cells from the embryo of Rarres1^+/+ and Rarres1^−/− mice were suspended and seeded in […] with or without RO3306, CDK1 inhibitor, in a 24-well plate at a density of 2,000 or 5,000 cells per well. The size and number of spheres formed while adding 300 μl of a medium once three to four days were measured.

Experiment [2] has as its system RARRES1 expression. As to the kind of experiment: Restoration of RARRES1 expression by DNA methylation inhibitor, RT-PCR. Format: cell-based, human. Particulars: for tested cell lines showing restored RARRES1 expression in a dose-dependent manner: 5, 25 and 100 uM for 5 days. As to the method:
Total RNA was extracted from human cancer cell lines including prostate cancer, lung cancer, and breast cancer by using a TRIzol reagent (Invitrogen) according to the manufacturer's instructions, and 1 ug of total RNA was converted into cDNA with a Superscript® reverse transcriptase (Invitrogen). Primers used for human DNA were as follows: RARRES1-1-F ([…]), RARRES1-1-R ([…]), RARRES1-2-F ([…]), RARRES1-2-R ([…]), Cyclin B1-F ([…]), Cyclin B1-R ([…]), Actin-F ([…]), and Actin-R ([…]), and the primers respectively yielded PCR products with predicted sizes of 327 bp, 359 bp, 347 bp, and 626 bp. Primers used for mouse DNA were as follows: Rarres1-F([…]), Rarres1-R ([…]), Gapdh-F (TGCACCACCAACTGCTTA), and Gapdh-R (GGATGCAGGGATGATGTTC), and these primers respectively yielded PCR products with predicted sizes of 653 bp and 177 bp.
To determine whether promoter methylation was associated with the silencing of the RARRES1 expression in cancer cells, cells were treated with 5-aza-2′-deoxycytidine (5-aza-2-dC; 5, 25, and 100 uM) as an inhibitor of DNA methylation for 5 days.

The test system of experiment [3] is CDK1 protein. Briefly: Amount of CDK1 protein in cells transfected with RARRES1 and CDK1, treated with protein degradation inhibitors. Format: cell-based. Particulars: cells transfected with RARRES1 along with CDK1. As to the method:
[…]
In addition, when cells were transfected with RARRES1 along with CDK1 using the method of Example 1-1, the amount of the CDK1 protein was reduced. To examine how a quantitative change in the CDK1 protein was regulated, cells were treated with protein degradation inhibitors.

Experiment [4] deals with Rarres1 KO MEFs. As to the kind of experiment: Nocodazole treatment of MEFs, flow cytometry, cell counting and western blotting. The class given is cell-based, mouse. As to the method: For analysis of cell cycles or sub-G1 DNA contents, cells were immobilized with 80% ice-cold ethanol, and stored at 4° C. The cells were stained with PBS containing 50 ug/ml of propidium iodide (PI) and 100 ug/ml of RNase A at 37° C. for 30 minutes. DNA content was analyzed by FACS Calibur flow cytometry and the results thereof were analyzed using Cellquest software (Becton-Dickinson Immunocytometry Systems, San Diego, Calif.) and Modfit LT 3.3 software. At least 10,000 cells were analyzed per sample.
Growth was examined using MEFs derived from 13.5-day-old embryos. Cells were plated on a 6-well plate at a density of 20,000 cells/well, and then the number of the cells was counted every day from the following day for 5 days. To examine cell survival in response to nocodazole, which is a cell division inhibitor, cells were treated with 50 ng/ml or 100 ng/ml of nocodazole for 48 hours and cultured. Subsequently, the cells were treated with trypsin/EDTA and detached, followed by cell counting.
It was determined whether a mitotic stress-inducing drug such as nocodazole affects Rarres1 KO MEFs. MEF cells were treated with nocodazole (50 ng/ml or 100 ng/ml) or DMSO for 48 hours, and flow cytometry and cell counting according to Example 1-10 were performed thereon.
On the technique in general: A flow cytometer gives signals particle by particle.

Setting [5] is: some cancer cells (CWR22rv, T47D).

Where a SMILES comes first, the peptide text is derived from it. The star is where a group is joined. Cbz = O=C(OCc1ccccc1)*

With `O=C1NC(=NCc2cccs2)S/C1=C\c1ccc2ncccc2c1` [RO3306], in experiment [1] (RO3306-treated versus not treated, cells from Rarres1+/+ and Rarres1-/- embryos), the overall spheroid formation result is listed as “significantly reduced”. Further, the “sphere formation under RO3306” value in experiment [1] (embryonic epithelial cells from Rarres1-deficient mice) is reported as “formed spheres”; in experiment [1] (embryonic epithelial cells of the control mice) it was “barely formed spheres”.

Regarding `Nc1ncn([C@H]2C[C@H](O)[C@@H](CO)O2)c(=O)n1` [5-aza-2-dC, 5-aza-2′-deoxycytidine], in experiment [2] (Calu3 and HCC70 cells having high mRNA levels of RARRES1), the “RARRES1 expression after treatment” value was “failed to have reintroduced RARRES1 expression”. In experiment [2] (JIMT-1 cells), the “mRNA level of the RARRES1 gene after treatment” value is given as “reduced”. The “tested cell lines showing restored RARRES1 expression in a dose-dependent manner” value in experiment [2] (breast cancer cell lines (8/10)) was determined as 80%; in experiment [2] (lung cancer cell lines (4/5)), 80%; in experiment [2] (prostate cancer cell lines (4/4)), 100%. In addition, the “RARRES1 isoform 1 after treatment” value in experiment [2] (setting [5]) is “increased”. The “RARRES1 isoform 2 after treatment” value in experiment [2] (setting [5]) is recorded as “not detected”.

Consider `CC(C)C[C@@H](C=O)NC(=O)[C@H](CC(C)C)NC(=O)[C@H](CC(C)C)NC(=O)OCc1ccccc1` [MG132] (Cbz-Leu-Leu-Leu-aldehyde), for which the “amount of the CDK1 protein, which had been decreased by RARRES1” value in experiment [3] is on record as “still decreased”.

Take `CO/C1=C\C(C)=C\[C@@H](C)[C@@H](O)[C@@H](C)C/C(C)=C/C=C/[C@H](OC)[C@@H]([C@@H](C)[C@@H](O)[C@H](C)[C@@]2(O)C[C@@H](O)[C@H](C)[C@@H](C(C)C)O2)OC1=O` [BafA1, Bafilomycin A1]: the “amount of the CDK1 protein, which had been decreased by RARRES1” value in experiment [3] is listed as “increased again”.

Regarding `COC(=O)Nc1nc2ccc(C(=O)c3cccs3)cc2[nH]1` [nocodazole], the “cleavage of PARP and Caspase 3” value in experiment [4] (KO cells compared to WT cells, nocodazole treated) is given as “decreased”. Further, the “number of the cells after nocodazole treatment” value in experiment [4] (Rarres1-deficient MEFs versus WT MEFs, 50 or 100 ng/ml, 48 hours) is “less reduced”. Moreover, in experiment [4] (Rarres1-deficient MEFs versus WT MEFs, 50 or 100 ng/ml, 48 hours, dose-dependent), the “cell death induced by nocodazole” value was “significantly reduced”.

The record behind these values is US20220026415A1, “A METHOD FOR SCREENING A THERAPEUTIC AGENT FOR CANCER USING BINDING INHIBITOR OF CYCLIN-DEPENDENT KINASE 1 (CDK1)-CYCLIN B1 AND RETINOIC ACID RECEPTOR RESPONDER 1 (RARRES1) GENE KNOCKOUT ANIMAL MODEL” (NATIONAL CANCER CENTER, priority 2018, published 2022).
